ChEMBL document CHEMBL1141821, “Bioactive sesquiterpenes from a Taiwanese marine sponge Parahigginsia sp” (J Nat Prod, 1999)
≈ marks a conversion by molar mass, not a printed value.

What was measured:
Format in all cases: functional, cell-based
[1] = Cytotoxicity against human KB16 cells after 3 days by MTT assay; settings: KB16, 72 h
HT-29 = assay: Cytotoxicity against human HT-29 cells after 6 days by MTT assay; settings: HT-29, 144 h
P388 = assay: Cytotoxicity against mouse P388 cells after 3 days by MTT assay; settings: P388, 72 h
A549 = assay: Cytotoxicity against human A549 cells after 6 days by MTT assay; settings: A549, 144 h

Row | Compound | IC50 [1] [µg/mL] | IC50 (HT-29) [µg/mL] | IC50 (P388) [µg/mL] | IC50 (A549) [µg/mL]
1 | CC(C)=CCC[C@H](C)c1ccc(C)cc1O | 8.3 (≈ 38 µM) | 8.1 (≈ 37.1 µM) | 0.1 (≈ 0.458 µM) | –
2 | COc1cc(C(=O)O)ccc1C(C)/C=C/C=C(C)C (stereo not drawn) [PARAHIGGINIC ACID] | 4.8 (≈ 18.4 µM) | 6 (≈ 23 µM) | 1 (≈ 3.84 µM) | 3.9 (≈ 15 µM)
3 | Cc1ccc(C(C)CC(O)CC(C)C)c(O)c1 (stereo not drawn) [PARAHIGGINOL A] | > 50 | > 50 | > 50 | > 50
4 | CC(=O)OC(CC(C)C)CC(C)c1ccc(C=O)cc1O (stereo not drawn) [PARAHIGGINOL B] | 4.9 (≈ 16.8 µM) | 3.5 (≈ 12 µM) | 3 (≈ 10.3 µM) | 10 (≈ 34.2 µM)
5 | CC(=O)OC(CC(C)C)CC(C)c1ccc(C)cc1O (stereo not drawn) [PARAHIGGINOL C] | 3.9 (≈ 14 µM) | 2.6 (≈ 9.34 µM) | 2.5 (≈ 8.98 µM) | 2.8 (≈ 10.1 µM)
6 | CC(C)=C/C=C/C(C)c1ccc(C=O)c(O)c1O (stereo not drawn) [PARAHIGGINOL D] | 7.2 (≈ 29.2 µM) | 3.3 (≈ 13.4 µM) | 2.9 (≈ 11.8 µM) | 3.8 (≈ 15.4 µM)
